Data published in patent publication US3974157A, “1-(Amino-alkyl)-2-aryl-cyclohexane alcohols and esters” (Pennwalt Corporation, priority 1975, dated 1976).
Where a name gives a salt, the structure may show the parent alone.

What was measured:
Type in all cases: in vivo
[1] = phenylbenzoquinone (PBQ) writhing method (analgesia in mice, Sigmund et al); conditions: for ED50: Mus musculus
Procedure: (§1) Analgesia was assessed in mice utilizing the hot plate method of Eddy and Leimbach, Journal Pharmacology Expt. Therap., 107, 385, 1953, and/or the phenylbenzoquinone writhing method described by Sigmund et al, Proc. Soc. Exptl. Biol. Med., 95, 729, 1957. The hot plate method is based upon the delay in reaction time, following administration of an active analgesic when animals are placed on a heated […] plate maintained at constant temperature. Thus, the numbers of mice showing elevation of response times over control values after administration of various doses of an unknown compound are used to determine the median effective dose (ED50), which is that dose affecting 50% of the animals. The writhing method is based upon inhibition by an analgesic of the response which occurs when the chemical agent phenylbenzoquinone is injected intraperitoneally. This response is characterized by a twisting or stretching of the body and is referred to as writhing. Following administration of an analgesic or unknown compound into mice, the numbers of animals not responding to the phenylbenzoquinone challenge by writhing are determined.

[2] = tested on: arrhythmia produced in dogs or cats by ouabain; test: anti-arrhythmic activity: preventing or reversing the arrhythmia produced by ouabain; conditions: for Arrhythmia Reversal Time: ouabain arrhythmia
Procedure: Anti-arrhythmic activity was determined by measuring the effect of the test compound in preventing or reversing the arrhythmia produced in dogs or cats by ouabain. In the test method, the animal was pretreated with 10 mg/kg (i.v.) of the test compound. The animal was then given 15 micrograms/kg of ouabain (i.v.) followed by doses of 10 micrograms/kg of ouabain at 15-minute intervals (the last dose of ouabain could be less than 10 micrograms/kg) until an arrhythmia was produced which lasted for 10 minutes. The animal was then given 5 mg/kg (i.v.) of test compound. If the arrhythmia was not reversed after 3 minutes, 1 mg/kg of xylocaine was given (i.v.) to reverse the arrhythmia. If the arrhythmia was reversed within 3 minutes by the test compound, the period of time during which the test compound effected reversal was measured (Arrythmia Reversal Time).

[3] = tested on: arrhythmia produced in dogs or cats by ouabain; test: as above; conditions: amount compound 4 mg/kg
[4] = hot plate method (analgesia in mice, Eddy and Leimbach); conditions: Mus musculus
Procedure: as §1

[5] = po, mice, phenylbenzoquinone writhing, oral route, read-out: Analgesic Tests ED50 PBQ P.O.
[6] = sc, mice, phenylbenzoquinone writhing, subcutaneous route, read-out: Analgesic Tests ED50 PBQ S.C.
[7] = mice, phenylbenzoquinone writhing, oral route
[8] = mice, phenylbenzoquinone writhing, subcutaneous route
[9] = dogs or cats, amount compound 5 mg/kg
[10] = ouabain given i.v. until an arrhythmia lasting 10 minutes, after 10 mg/kg i.v. pretreatment with test compound
[11] = ip, mice, intraperitoneal route, read-out: Analgesic Tests ED50 Hot Plate I.P.
[12] = mice, oral route, read-out: Analgesic Tests ED50 Hot Plate P.O.

Row | SMILES | ED50 [1, 5] [mg/kg] | ED50 [1, 6] [mg/kg] | further results
1 | CC(=O)OC1(C(C)CN2CCN(c3ccccc3)CC2)CCCCC1c1ccccc1.Cl (stereo not drawn) [Example XXI, 1-(1-Methyl-2-[4-phenyl-1-piperazinyl]ethyl)-2-phenylcyclohexyl acetate hydrochloride] | 5.9 | > 100 | –
2 | CNCC(C)C1(O)CCCCC1c1ccccc1.Cl (stereo not drawn) [Example XXVI, 1-(2-Methylamino-1-methylethyl)-2-phenylcyclohexanol hydrochloride] | > 30 | > 10 | –
3 | CC(=O)OC1(C(C)CN(C)C)CCCCC1c1ccccc1 (single isomer, unassigned; (+)) [Example X, (+)-1-(2-Dimethylamino-1-methylethyl)-2-phenylcyclohexyl acetate] | – | – | Analgesic Tests ED50 PBQ P.O. [1, 7]: > 100 mg/kg; Analgesic Tests ED50 PBQ S.C. [1, 8]: 16.5 mg/kg
4 | COc1ccc(C2CCCCC2(O)C(C)CN(C)C)cc1.Cl (stereo not drawn) [Example XVII, 1-(2-Dimethylamino-1-methylethyl)-2-(p-methoxyphenyl)-cyclohexanol hydrochloride] | > 100 | > 30 | Arrhythmia Reversal Time [2, 9]: 30 min; Amount Ouabain [2, 10]: 80 µg/kg
5 | CC(=O)OC1(C(C)CN(C)C)CCCCC1c1ccccc1 (single isomer, unassigned) [Example I (c), 1-(2-Dimethylamino-1-methylethyl)-2-phenylcyclohexyl acetate maleate (Major Isomer)] | – | – | Arrhythmia Reversal Time [3]: 30 min; Analgesic Tests ED50 PBQ P.O. [1, 7]: 20 mg/kg; Analgesic Tests ED50 PBQ S.C. [1, 8]: 3.8 mg/kg; Amount Ouabain [2, 10]: 85 µg/kg; ED50 [4, 11]: 10 mg/kg; ED50 [4, 12]: 40 mg/kg
6 | CCOC(=O)C1(c2ccccc2)CCN(C)CC1 [Meperidine, reference compound] | 18 | 1.7 | ED50 [4, 11]: 5.8 mg/kg; ED50 [4, 12]: 81 mg/kg
7 | CC(CN(C)C)C1(O)CCCCC1c1ccc(O)cc1 (stereo not drawn) [Example XXX, 1-(2-Dimethylamino-1-methylethyl)-2-(p-hydroxyphenyl)-cyclohexanol] | > 100 | > 30 | –
8 | CC(=O)OC1(C(C)N(C)C)CCCCC1c1ccccc1 (stereo not drawn) [XXVIII, 1-(1-Dimethylaminoethyl)-2-phenylcyclohexyl acetate cyclohexylsulfamate] | > 30 | > 10 | –
9 | CC(=O)OC1(C(C)CN(C)C)CCCCC1c1ccccc1 (single isomer, unassigned; (-)) [Example IX, (-)-1-(2-Dimethylamino-1-methylethyl)-2-phenylcyclohexyl acetate] | – | – | Analgesic Tests ED50 PBQ P.O. [1, 7]: 16 mg/kg; Analgesic Tests ED50 PBQ S.C. [1, 8]: 2.15 mg/kg
10 | CC(CN(C)C)C1(O)CCCCC1c1ccccc1 (stereo not drawn) [Example XI, 1-(2-Dimethylamino-1-methylethyl)-2-phenylcyclohexanol-p-toluenesulfonate] | 56 | – | Arrhythmia Reversal Time [3]: 5 min; Amount Ouabain [2, 10]: 88 µg/kg; ED50 [4, 11]: 32 mg/kg; ED50 [4, 12]: 56 mg/kg
11 | CC(N(C)C)C1(O)CCCCC1c1ccccc1.Cl (stereo not drawn) [Example XXVII, 1-(1-Dimethylaminoethyl)-2-phenylcyclohexanol hydrochloride] | > 100 | > 100 | –
12 | C=CCN(CC=C)CC(C)C1(OC(C)=O)CCCCC1c1ccccc1 (stereo not drawn) [Example XVI, 1-(2-Diallylamino-1-methylethyl)-2-phenylcyclohexyl acetate] | > 30 | > 3 | –
13 | CC(=O)OC1(C(C)CN2CCOCC2)CCCCC1c1ccccc1.Cl (stereo not drawn) [XIX, 1-(1-Methyl-2-morpholinoethyl)2-phenylcyclohexyl acetate hydrochloride] | 40 | 56.2 | –
14 | CCC(=O)OC1(C(C)CN(C)C)CCCCC1c1ccccc1 (single isomer, unassigned) [Example I (a), 1-(2-Dimethylamino-1-methylethyl)-2-phenylcyclohexyl propionate maleate (Major Isomer)] | 100 | – | ED50 [4, 11]: > 40 mg/kg; ED50 [4, 12]: > 100 mg/kg
15 | CN1CC[C@]23c4c5ccc(O)c4O[C@H]2[C@@H](O)C=C[C@H]3[C@H]1C5 [Morphine, reference compound] | – | – | ED50 ([1]; po, read-out: Analgesic Tests ED50 PBQ P.O.): 2.6 mg/kg; ED50 ([1]; sc, read-out: Analgesic Tests ED50 PBQ S.C.): 0.5 mg/kg; ED50 ([4]; ip, read-out: Analgesic Tests ED50 Hot Plate I.P.): 1.8 mg/kg; ED50 ([4]; po, read-out: Analgesic Tests ED50 Hot Plate P.O.): 18 mg/kg
16 | COc1ccc(C2CCCCC2(OC(C)=O)C(C)CN(C)C)cc1OC.Cl (stereo not drawn) [XXXIII, 2-(3,4-Dimethoxyphenyl)-1-(2-dimethylamino-1-methylethyl)cyclohexyl acetate hydrochloride] | > 100 | > 30 | Arrhythmia Reversal Time [2, 9]: 30 min; Amount Ouabain [2, 10]: 70 µg/kg
17 | CC(=O)OC1(C(C)CN2CCCC2)CCCCC1c1ccccc1.O=S(=O)(O)O (stereo not drawn) [Example XXII, 1-(1-Methyl-2-pyrrolidinoethyl)-2-phenylcyclohexyl acetate sulfate] | > 30 | ~10 | –
18 | CC(N)C1(O)CCCCC1c1ccccc1.Cl (stereo not drawn) [Example XXIII, 1-(1-Aminoethyl)-2-phenylcyclohexanol hydrochloride] | > 100 | > 30 | Arrhythmia Reversal Time [2, 9]: 5 min; Amount Ouabain [2, 10]: 95 µg/kg
19 | CC(=O)OC1(C(C)CN2CCCCC2)CCCCC1c1ccccc1.Cl (stereo not drawn) [XII, 1-(1-Methyl-2-piperidinoethyl)-2-phenylcyclohexyl acetate hydrochloride] | ~60 | ~30 | –
20 | CC(CN1CCCC1)C1(O)CCCCC1c1ccccc1 (stereo not drawn) [Example III, 1-(1-Methyl-2-pyrrolidinoethyl)-2-phenylcyclohexanol] | > 100 | ~30 | Arrhythmia Reversal Time [2, 9]: 5 min; Amount Ouabain [2, 10]: 100 µg/kg
21 | CN(C)CCC1(O)CCCCC1c1ccccc1 (stereo not drawn) [Example XIV, 1-(2-Dimethylaminoethyl)-2-phenylcyclohexanol] | > 100 | ~30 | –
22 | CC(=O)OC1(CCN(C)C)CCCCC1c1ccccc1 (stereo not drawn) [Example XV, 1-(2-Dimethylaminoethyl)-2-phenylcyclohexyl acetate cyclohexylsulfamate] | > 30 | > 10 | –
23 | CCN(CC)CC(=O)Nc1c(C)cccc1C [Lidocaine, reference compound] | – | – | Amount Ouabain ([2]; control (Lidocaine) line): 60 to 130 µg/kg; Arrhythmia Reversal Time ([2]; dogs or cats, control, amount compound 1-2 mg/kg): 1 to 3 min
24 | CNC(C)C1(O)CCCCC1c1ccccc1.Cl (stereo not drawn) [XXIV, 1-(1-Methylaminoethyl)-2-phenylcyclohexanol hydrochloride] | > 100 | > 30 | prevention of arrhythmia by pretreatment ([2]; dogs or cats, 10 mg/kg pretreatment, then ouabain): prevented arrhythmia; Amount Ouabain [2, 10]: 140 µg/kg
25 | C=CCN(C)CC(C)C1(OC(C)=O)CCCCC1c1ccccc1 (stereo not drawn) [XIII, 1-(2-Allylmethylamino-1-methylethyl)-2-phenylcyclohexyl acetate] | ~100 | ~30 | –
26 | COc1ccc(C2CCCCC2(O)C(C)CN(C)C)cc1OC (stereo not drawn) [XXXII, 2-(3,4-Dimethoxyphenyl)-1-(2-dimethylamino-1-methylethyl)cyclohexanol p-toluenesulfonate] | > 100 | ~30 | –
27 | COc1ccc(C2CCCCC2(OC(C)=O)C(C)CN(C)C)cc1 (stereo not drawn) [Example XXV, 1-(2-Dimethylamino-1-methylethyl)-2-(p-methoxyphenyl)-cyclohexylacetate hydrochloride] | > 100 | > 30 | –
28 | CC(=O)OC1(C(C)CN(C)C)CCCCC1c1ccc(O)cc1.Cl (stereo not drawn) [XXXI, 1-(2-Dimethylamino-1-methylethyl)-2-(p-hydroxyphenyl)cyclohexyl acetate hydrochloride] | > 100 | > 100 | –
